The values that follow come from patent publication US11077100B2, “Tetrahydroquinoline derivatives as P2X7 receptor antagonists” (RaQualia Pharma Inc., priority 2017, dated 2021).

The target of assay [1] is rat P2X7 (Rattus norvegicus (Rat), UniProt Q64663). The experiment in a line: Rat P2X7 functional assay (Ca2+ influx, Fluo-4, FDSS). The class given is cell-based. The note with it: HEK293 cells stably expressing rat P2X7; BzATP final 10 microM; 7-point dose-response; read-out: Antagonistic activities with respect to the rat P2X7 receptor (IC50). In a few lines:
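IC50 derived from 7-point dose-response in duplicate, measuring inhibition of BzATP-evoked (final 10 microM) intracellular Ca2+ increase by Fluo-4 fluorescence on FDSS. Rat P2X7-HEK293 cells were exposed to compound for 10 min in the dark beforehand.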

Assay [2] concerns the target human P2X7 (Homo sapiens (Human), UniProt Q99572). Description: Human P2X7 functional assay (Ca2+ influx, Fluo-4, FDSS). It counts as cell-based. The conditions noted are these: antagonistic activity with respect to the human P2X7 receptor; BzATP final concentration 80 microM. In a few lines: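 Ca2+ influx was triggered with BzATP (80 μM final) after a 10-min room-temperature compound preincubation and monitored with Fluo-4 (ex 480/em 540 nm) on FDSS. The cells were HEK293 stably carrying FLAG-tagged human P2X7. Duplicate-averaged 7-point dose-responses gave IC50s.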

pIC50: −log10 of the molar value. Bounds are passed on as bounds.

Broadly, the pIC50 is −log10 of the IC50, conventionally taken in molar units.

Chain of rat P2X7 (Q64663 whole entry): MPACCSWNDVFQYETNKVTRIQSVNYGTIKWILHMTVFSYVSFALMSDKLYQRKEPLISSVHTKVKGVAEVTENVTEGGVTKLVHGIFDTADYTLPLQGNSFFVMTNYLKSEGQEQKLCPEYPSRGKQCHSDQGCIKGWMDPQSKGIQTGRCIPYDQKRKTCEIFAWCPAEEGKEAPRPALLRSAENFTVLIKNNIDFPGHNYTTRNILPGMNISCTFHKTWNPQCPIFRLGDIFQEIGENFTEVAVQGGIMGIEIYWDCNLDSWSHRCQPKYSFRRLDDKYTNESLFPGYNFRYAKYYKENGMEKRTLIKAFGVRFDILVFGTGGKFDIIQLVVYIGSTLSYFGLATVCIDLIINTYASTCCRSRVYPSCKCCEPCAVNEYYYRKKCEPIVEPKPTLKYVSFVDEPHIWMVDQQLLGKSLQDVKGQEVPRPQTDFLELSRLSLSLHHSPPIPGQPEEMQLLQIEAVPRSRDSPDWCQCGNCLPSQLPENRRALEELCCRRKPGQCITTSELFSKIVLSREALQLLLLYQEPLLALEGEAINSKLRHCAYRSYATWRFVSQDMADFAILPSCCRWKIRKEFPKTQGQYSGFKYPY
Chain of human P2X7 (Q99572 whole entry): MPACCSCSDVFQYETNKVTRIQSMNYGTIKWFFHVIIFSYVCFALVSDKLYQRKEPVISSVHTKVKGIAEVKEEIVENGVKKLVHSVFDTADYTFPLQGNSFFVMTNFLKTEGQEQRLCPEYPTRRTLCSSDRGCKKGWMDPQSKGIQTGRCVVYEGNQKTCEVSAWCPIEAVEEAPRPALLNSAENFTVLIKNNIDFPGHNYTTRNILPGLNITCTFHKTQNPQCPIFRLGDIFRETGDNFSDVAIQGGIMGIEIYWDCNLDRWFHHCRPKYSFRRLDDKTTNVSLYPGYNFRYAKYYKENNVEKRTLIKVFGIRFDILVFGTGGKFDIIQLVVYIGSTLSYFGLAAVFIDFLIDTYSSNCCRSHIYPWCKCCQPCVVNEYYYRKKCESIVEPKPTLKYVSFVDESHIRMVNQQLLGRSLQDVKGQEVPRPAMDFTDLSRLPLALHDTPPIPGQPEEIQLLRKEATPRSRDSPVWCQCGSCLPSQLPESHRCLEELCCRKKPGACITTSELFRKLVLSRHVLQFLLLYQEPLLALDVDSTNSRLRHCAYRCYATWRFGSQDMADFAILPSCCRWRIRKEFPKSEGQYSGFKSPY

For `O=C(NCc1ccc(F)cc1Cl)[C@]1(F)CC[C@@](O)(CS(=O)(=O)CCO)c2ncccc21` [Example 301, (5S,8S)-N-(2-chloro-4-fluorobenzyl)-5-fluoro-8-hydroxy-8-(((2-hydroxyethyl)sulfonyl)methyl)-5,6,7,8-tetrahydroquinoline-5-carboxamide], the pIC50 in assay [1] is over 6.00; in assay [2], 7.00 to 7.30.
In the same order, the values of `O=C1CCC(F)(C(=O)NCc2c(Cl)cc(Cl)cc2CO)c2cccnc21` (centres unmarked) [Example 14, N-(2,4-dichloro-6-(hydroxymethyl)benzyl)-5-fluoro-8-oxo-5,6,7,8-tetrahydro-quinoline-5-carboxamide] are over 6.00 and over 7.30.
Turning to `CO[C@H]1CC[C@@](F)(C(=O)NCc2c(F)cc(F)cc2F)c2cccnc21` [Example 341, (5S,8S)-5-fluoro-8-methoxy-N-(2,4,6-trifluorobenzyl)-5,6,7,8-tetrahydroquinoline-5-carboxamide], the negative logarithm of the IC50 (pIC50) was over 6.00 in assay [1] and 7.00 to 7.30 in assay [2].
As for `CC(CNC(=O)[C@]1(F)CC[C@H](O)c2ncccc21)c1ccc(Cl)cc1` (stereo partly drawn) [Example 234, (5S,8S)-N-(2-(4-chlorophenyl)propyl)-5-fluoro-8-hydroxy-5,6,7,8-tetrahydroquinoline-5-carboxamide], the pIC50 in assay [1] is over 6.00; in assay [2], 6.00 to 6.52.
Taken in the same sequence, the figures for `O=C(NCc1cccc(C(F)(F)F)c1Cl)C1(F)CCC(O)(CO)c2ncccc21` (centres unmarked) [Example 35, N-(2-chloro-3-(trifluoromethyl)benzyl)-5-fluoro-8-hydroxy-8-(hydroxymethyl)-5,6,7,8-tetrahydroquinoline-5-carboxamide] were over 6.00 and over 7.30.
In the same order, the values of `O=C(NCc1ccc(F)c(Cl)c1F)[C@]1(F)CC[C@H](O)c2ncccc21` [Example 185, (5S,8S)-N-(3-chloro-2,4-difluorobenzyl)-5-fluoro-8-hydroxy-5,6,7,8-tetrahydroquinoline-5-carboxamide] are over 6.00 and over 7.30.
As for `O=C(NCc1ccc(F)cc1F)[C@]1(F)CC[C@H](OCCO)c2ncccc21` [Example 347, (5S,8S)-N-(2,4-difluorobenzyl)-5-fluoro-8-(2-hydroxyethoxy)-5,6,7,8-tetrahydroquinoline-5-carboxamide], the results for the pIC50 in assay [1] and in assay [2] were over 6.00 and 7.00 to 7.30, respectively.
In the same order, the values of `O=C(NCc1c(Cl)cc(Cl)cc1CO)[C@]1(F)CC[C@H](OCCO)c2ncccc21` [Example 343, (5S,8S)-N-(2,4-dichloro-6-(hydroxymethyl)benzyl)-5-fluoro-8-(2-hydroxyethoxy)-5,6,7,8-tetrahydroquinoline-5-carboxamide] are over 6.00 and over 7.30.
As to `O=C(NCc1cccc(C(F)(F)F)c1Cl)C1(O)CCC(O)c2ncccc21` (centres unmarked) [Example 25, N-(2-chloro-3-(trifluoro-methyl)benzyl)-5,8-dihydroxy-5,6,7,8-tetrahydroquinoline-5-carboxamide], the negative-log IC50 (pIC50) in assay [1] is over 6.00; in assay [2], 6.52 to 7.00.
In the same order, the values of `O=C(NCc1ccc(Cl)cc1Cl)[C@]1(F)CC[C@@](O)(CN2CC(O)C2)c2ncccc21` (relative stereo) [Example 51, (5S*,8R*)-N-(2,4-dichlorobenzyl)-5-fluoro-8-hydroxy-8-((3-hydroxyaze-tidin-1-yl)methyl)-5,6,7,8-tetrahydro-quinoline-5-carboxamide] are over 6.00 and over 7.30.
Take `N[C@@]1(CO)CC[C@@](F)(C(=O)NCc2ccc(Cl)cc2Cl)c2cccnc21` (relative stereo) [Example 60, (5S*,8S*)-8-amino-N-(2,4-dichloro-benzyl)-5-fluoro-8-(hydroxymethyl)-5,6,7,8-tetrahydroquinoline-5-carboxamide]: the pIC50 in assay [1] was over 6.00; in assay [2], 6.52 to 7.00.
In the same order, the values of `O=C(NCc1c(F)cc(F)cc1Cl)[C@]1(F)CC[C@H](O)c2ncccc21` [Example 176, (5S,8S)-N-(2-chloro-4,6-difluorobenzyl)-5-fluoro-8-hydroxy-5,6,7,8-tetrahydroquinoline-5-carboxamide] are over 6.00 and over 7.30.
`O=C(NCc1ccc(F)c(F)c1F)[C@@]1(F)CC[C@@H](O)c2ncccc21` [Example 136, (5R,8R)-5-fluoro-8-hydroxy-N-(2,3,4-trifluorobenzyl)-5,6,7,8-tetrahydroquinoline-5-carboxamide]: the figures for the pIC50 in assay [1] and in assay [2] were over 6.00 and 6.52 to 7.00, respectively.
Take `O=C(NCc1cccc(C(F)(F)F)c1Cl)[C@@]1(F)CC[C@@H](O)c2ncccc21` [Example 128, (5R,8R)-N-(2-chloro-3-(trifluoromethyl)benzyl)-5-fluoro-8-hydroxy-5,6,7,8-tetrahydroquinoline-5-carboxamide]: the pIC50 in assay [1] was over 6.00; in assay [2], over 7.30.
Taken in the same sequence, the figures for `N#CC[C@]1(O)CC[C@@](F)(C(=O)NCc2ccc(F)cc2Cl)c2cccnc21` [Example 281, (5S,8R)-N-(2-chloro-4-fluorobenzyl)-8-(cyanomethyl)-5-fluoro-8-hydroxy-5,6,7,8-tetrahydroquinoline-5-carboxamide] were over 6.00 and 6.00 to 6.52.
In the same order, the values of `CC(NC(=O)[C@]1(F)CC[C@H](O)c2ncccc21)C12CC3CC(CC(C3)C1)C2` (stereo partly drawn) [Example 231, (5S,8S)-N-(1-(adamantan-1-yl)ethyl)-5-fluoro-8-hydroxy-5,6,7,8-tetrahydroquinoline-5-carboxamide] are over 6.00 and over 7.30.
In the same order, the values of `O=C(NCc1ccc(Cl)cc1F)[C@]1(F)CC[C@H](OCCO)c2ncccc21` [Example 346, (5S,8S)-N-(4-chloro-2-fluorobenzyl)-5-fluoro-8-(2-hydroxyethoxy)-5,6,7,8-tetrahydroquinoline-5-carboxamide] are over 6.00 and over 7.30.
`O=C(NCc1ccc(Cl)cc1Cl)[C@H]1CC[C@@H](O)c2ncccc21` [Example 88, (5S,8R)-N-(2,4-dichloro-benzyl)-8-hydroxy-5,6,7,8-tetrahydroquinoline-5-carboxamide]: the pIC50 was over 6.00 in assay [1] and over 7.30 in assay [2].
In the same order, the values of `O=C(NCc1ccc(F)cc1Cl)[C@@]1(F)CC[C@@H](O)c2ncccc21` [Example 134, (5R,8R)-N-(2-chloro-4-fluorobenzyl)-5-fluoro-8-hydroxy-5,6,7,8-tetrahydroquinoline-5-carboxamide] are over 6.00 and 6.52 to 7.00.
In the same order, the values of `O=C(NCc1cccc(C(F)(F)F)c1Cl)[C@]1(F)CC[C@H](O)c2ncccc21` [Example 129, (5S,8S)-N-(2-chloro-3-(trifluoromethyl)benzyl)-5-fluoro-8-hydroxy-5,6,7,8-tetrahydroquinoline-5-carboxamide] are over 6.00 and over 7.30.
For the molecule `O=C(NCc1ccc(F)cc1Cl)[C@@H]1CC[C@@H](O)c2ncccc21` [Example 89, (5R,8R)-N-(2-chloro-4-fluorobenzyl)-8-hydroxy-5,6,7,8-tetrahydroquinoline-5-carboxamide], the results for the pIC50 in assay [1] and in assay [2] were over 6.00 and 6.52 to 7.00, respectively.
Taken in the same sequence, the figures for `N#CC[C@@]1(O)CC[C@@](F)(C(=O)NCc2ccc(F)cc2Cl)c2cccnc21` [Example 282, (5S,8S)-N-(2-chloro-4-fluorobenzyl)-8-(cyanomethyl)-5-fluoro-8-hydroxy-5,6,7,8-tetrahydroquinoline-5-carboxamide] were over 6.00 and over 7.30.
For the molecule `O=C(NCc1cccc(Cl)c1Cl)C1(F)CCC(O)c2ncccc21` (centres unmarked) [Example 21, N-(2,3-dichlorobenzyl)-5-fluoro-8-hydroxy-5,6,7,8-tetrahydroquinoline-5-carboxamide], the pIC50 in assay [1] is over 6.00; in assay [2], over 7.30.
Turning to `Cc1ccc(F)c(CNC(=O)[C@]2(F)CC[C@H](O)c3ncccc32)c1Cl` [Example 142, (5S,8S)-N-(2-chloro-6-fluoro-3-methylbenzyl)-5-fluoro-8-hydroxy-5,6,7,8-tetrahydroquinoline-5-carboxamide], the pIC50 was over 6.00 in assay [1] and over 7.30 in assay [2].
In the same order, the values of `CSC[C@]1(O)CC[C@@](F)(C(=O)NCc2ccc(F)cc2Cl)c2cccnc21` [Example 288, (5S,8S)-N-(2-chloro-4-fluorobenzyl)-5-fluoro-8-hydroxy-8-((methylthio)methyl)-5,6,7,8-tetrahydroquinoline-5-carboxamide] are over 6.00 and over 7.30.
On to `C[C@@H](NC(=O)[C@]1(F)CC[C@@](O)(CO)c2ncccc21)c1ccc(F)cc1Cl` [Example 327, (5S,8S)-N-((R)-1-(2-chloro-4-fluorophenyl)ethyl)-5-fluoro-8-hydroxy-8-(hydroxymethyl)-5,6,7,8-tetrahydroquinoline-5-carboxamide], for which the pIC50 in assay [1] was over 6.00; in assay [2], over 7.30.
Taken in the same sequence, the figures for `O=C(NCc1ccc(F)c(F)c1Cl)[C@]1(F)CC[C@@](O)(CO)c2ncccc21` [Example 312, (5S,8S)-N-(2-chloro-3,4-difluorobenzyl)-5-fluoro-8-hydroxy-8-(hydroxymethyl)-5,6,7,8-tetrahydroquinoline-5-carboxamide] were over 6.00 and over 7.30.
Taken in the same sequence, the figures for `Cc1ccc(CNC(=O)[C@]2(F)CC[C@H](O)c3ncccc32)c(Cl)c1` [Example 167, (5S,8S)-N-(2-chloro-4-methylbenzyl)-5-fluoro-8-hydroxy-5,6,7,8-tetrahydroquinoline-5-carboxamide] were over 6.00 and over 7.30.
